Read-outs that look alike come from different tables or passages of the source.
Tests used:
Assay type in all cases: biochemical
PKCz = biological target: T1, PKCz (Homo sapiens, UniProt Q05513); experiment: Activity against various protein tyrosine kinases: PKCz; settings: for inhibition at 0.01 µM: 10 nM
T1 sequence (Q05513 1-592): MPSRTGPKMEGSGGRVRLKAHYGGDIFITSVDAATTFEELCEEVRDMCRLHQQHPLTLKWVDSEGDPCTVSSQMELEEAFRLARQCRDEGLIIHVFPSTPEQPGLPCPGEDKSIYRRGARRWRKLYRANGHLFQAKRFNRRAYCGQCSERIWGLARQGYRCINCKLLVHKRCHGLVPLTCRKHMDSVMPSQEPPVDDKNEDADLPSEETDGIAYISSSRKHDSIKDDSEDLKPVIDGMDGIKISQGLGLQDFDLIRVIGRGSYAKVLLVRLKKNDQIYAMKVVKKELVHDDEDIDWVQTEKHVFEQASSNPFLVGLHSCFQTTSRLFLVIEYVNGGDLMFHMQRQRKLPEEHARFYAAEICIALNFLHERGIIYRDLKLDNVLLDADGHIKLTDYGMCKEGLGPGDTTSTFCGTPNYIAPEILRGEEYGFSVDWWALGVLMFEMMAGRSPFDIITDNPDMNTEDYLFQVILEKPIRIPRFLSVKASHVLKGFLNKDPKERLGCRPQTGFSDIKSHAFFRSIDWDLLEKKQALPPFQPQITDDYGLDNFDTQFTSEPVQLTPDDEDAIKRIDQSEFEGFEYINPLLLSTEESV
Method: (§1) Using techniques know those of ordinary skill in the art, compounds were tested for activity against various protein tyrosine kinases.

MSK1 = MSK1 (Homo sapiens, UniProt O75582); experiment: Activity against various protein tyrosine kinases: MSK1; settings: for inhibition at 0.01 µM: 10 nM
Chain of MSK1 (O75582 whole entry, species assumed): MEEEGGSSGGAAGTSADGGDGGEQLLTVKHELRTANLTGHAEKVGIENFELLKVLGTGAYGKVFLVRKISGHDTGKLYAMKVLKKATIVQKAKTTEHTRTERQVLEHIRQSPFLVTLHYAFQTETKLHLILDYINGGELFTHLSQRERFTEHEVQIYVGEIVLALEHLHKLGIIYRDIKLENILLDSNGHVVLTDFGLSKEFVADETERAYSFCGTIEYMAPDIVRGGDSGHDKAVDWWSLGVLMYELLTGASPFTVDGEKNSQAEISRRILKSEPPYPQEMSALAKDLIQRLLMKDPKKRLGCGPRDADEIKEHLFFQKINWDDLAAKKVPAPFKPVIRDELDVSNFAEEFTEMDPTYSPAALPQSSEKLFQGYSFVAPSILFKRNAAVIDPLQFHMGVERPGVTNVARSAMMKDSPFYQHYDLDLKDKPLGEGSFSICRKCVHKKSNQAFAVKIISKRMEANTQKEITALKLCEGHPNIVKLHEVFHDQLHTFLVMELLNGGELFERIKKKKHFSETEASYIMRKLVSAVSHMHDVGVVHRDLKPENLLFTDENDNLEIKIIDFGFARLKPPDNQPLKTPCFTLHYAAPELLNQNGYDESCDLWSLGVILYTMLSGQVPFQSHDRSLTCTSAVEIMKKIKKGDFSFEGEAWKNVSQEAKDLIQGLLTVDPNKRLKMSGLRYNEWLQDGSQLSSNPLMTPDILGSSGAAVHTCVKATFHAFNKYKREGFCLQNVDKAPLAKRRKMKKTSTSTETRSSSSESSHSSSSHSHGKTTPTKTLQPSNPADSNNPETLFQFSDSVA
Method: as §1

MET = MET (Homo sapiens, UniProt P08581); experiment: Activity against various protein tyrosine kinases: MET; settings: for inhibition at 0.01 µM: 10 nM
Method: as §1

FGFR4 = FGFR4 (Homo sapiens, UniProt P22455); experiment: Activity against various protein tyrosine kinases: FGFR4; settings: for inhibition at 0.01 µM: 10 nM
Chain of FGFR4 (P22455 22-802, species assumed): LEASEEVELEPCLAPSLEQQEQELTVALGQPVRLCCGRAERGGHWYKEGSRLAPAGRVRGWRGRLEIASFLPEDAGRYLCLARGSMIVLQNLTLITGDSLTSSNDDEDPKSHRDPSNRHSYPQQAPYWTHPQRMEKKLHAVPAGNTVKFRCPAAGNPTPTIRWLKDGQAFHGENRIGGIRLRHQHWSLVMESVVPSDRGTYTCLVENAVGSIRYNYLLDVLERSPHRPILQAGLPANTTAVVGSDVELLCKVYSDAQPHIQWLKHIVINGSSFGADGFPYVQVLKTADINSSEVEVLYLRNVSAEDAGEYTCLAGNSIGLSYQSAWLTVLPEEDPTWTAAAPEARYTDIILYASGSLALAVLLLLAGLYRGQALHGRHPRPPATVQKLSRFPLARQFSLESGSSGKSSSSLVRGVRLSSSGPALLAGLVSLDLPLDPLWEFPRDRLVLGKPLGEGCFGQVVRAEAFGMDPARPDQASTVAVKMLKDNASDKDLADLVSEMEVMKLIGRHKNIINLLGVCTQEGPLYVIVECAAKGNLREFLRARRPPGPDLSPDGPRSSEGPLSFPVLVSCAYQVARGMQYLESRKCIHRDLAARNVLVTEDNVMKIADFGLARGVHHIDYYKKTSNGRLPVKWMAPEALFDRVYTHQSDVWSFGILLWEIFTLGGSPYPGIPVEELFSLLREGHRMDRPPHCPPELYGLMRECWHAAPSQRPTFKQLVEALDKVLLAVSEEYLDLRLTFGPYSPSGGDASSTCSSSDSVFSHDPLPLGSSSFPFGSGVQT
Method: as §1

AurB = AurB (Homo sapiens, UniProt Q96GD4); experiment: Activity against various protein tyrosine kinases: AurB; settings: for inhibition at 1 µM: read-out: % Inhibition at 1 μM; for inhibition at 0.01 µM: 10 nM
Chain of AurB (Q96GD4 whole entry): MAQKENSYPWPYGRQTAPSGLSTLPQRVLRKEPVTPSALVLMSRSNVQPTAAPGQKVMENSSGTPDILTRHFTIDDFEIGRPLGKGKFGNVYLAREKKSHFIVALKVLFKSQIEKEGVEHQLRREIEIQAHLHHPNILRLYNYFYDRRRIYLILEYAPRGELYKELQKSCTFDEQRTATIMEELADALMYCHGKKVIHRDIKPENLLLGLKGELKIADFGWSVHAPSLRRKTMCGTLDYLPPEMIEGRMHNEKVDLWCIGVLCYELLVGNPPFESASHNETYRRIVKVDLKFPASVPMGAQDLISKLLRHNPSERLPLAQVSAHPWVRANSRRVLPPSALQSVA
Method: as §1

Erk2 = Erk2 (Homo sapiens, UniProt P28482); experiment: Activity against various protein tyrosine kinases: Erk2; settings: for inhibition at 0.01 µM: 10 nM
Chain of Erk2 (P28482 whole entry, species assumed): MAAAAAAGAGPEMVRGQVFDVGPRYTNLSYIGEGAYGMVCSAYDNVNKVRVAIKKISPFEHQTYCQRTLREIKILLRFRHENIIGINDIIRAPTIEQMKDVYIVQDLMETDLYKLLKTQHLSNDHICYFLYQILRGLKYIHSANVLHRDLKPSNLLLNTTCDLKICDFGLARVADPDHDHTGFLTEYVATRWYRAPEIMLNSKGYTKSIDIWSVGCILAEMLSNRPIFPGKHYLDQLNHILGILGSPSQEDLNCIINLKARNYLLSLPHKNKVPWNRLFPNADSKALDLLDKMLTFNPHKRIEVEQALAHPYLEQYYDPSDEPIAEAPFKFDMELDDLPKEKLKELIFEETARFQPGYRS
Method: as §1

FGFR2 = FGFR2 (Homo sapiens, UniProt P21802); experiment: Activity against various protein tyrosine kinases: FGFR2; settings: for inhibition at 0.01 µM: 10 nM
Chain of FGFR2 (P21802 22-821, species assumed): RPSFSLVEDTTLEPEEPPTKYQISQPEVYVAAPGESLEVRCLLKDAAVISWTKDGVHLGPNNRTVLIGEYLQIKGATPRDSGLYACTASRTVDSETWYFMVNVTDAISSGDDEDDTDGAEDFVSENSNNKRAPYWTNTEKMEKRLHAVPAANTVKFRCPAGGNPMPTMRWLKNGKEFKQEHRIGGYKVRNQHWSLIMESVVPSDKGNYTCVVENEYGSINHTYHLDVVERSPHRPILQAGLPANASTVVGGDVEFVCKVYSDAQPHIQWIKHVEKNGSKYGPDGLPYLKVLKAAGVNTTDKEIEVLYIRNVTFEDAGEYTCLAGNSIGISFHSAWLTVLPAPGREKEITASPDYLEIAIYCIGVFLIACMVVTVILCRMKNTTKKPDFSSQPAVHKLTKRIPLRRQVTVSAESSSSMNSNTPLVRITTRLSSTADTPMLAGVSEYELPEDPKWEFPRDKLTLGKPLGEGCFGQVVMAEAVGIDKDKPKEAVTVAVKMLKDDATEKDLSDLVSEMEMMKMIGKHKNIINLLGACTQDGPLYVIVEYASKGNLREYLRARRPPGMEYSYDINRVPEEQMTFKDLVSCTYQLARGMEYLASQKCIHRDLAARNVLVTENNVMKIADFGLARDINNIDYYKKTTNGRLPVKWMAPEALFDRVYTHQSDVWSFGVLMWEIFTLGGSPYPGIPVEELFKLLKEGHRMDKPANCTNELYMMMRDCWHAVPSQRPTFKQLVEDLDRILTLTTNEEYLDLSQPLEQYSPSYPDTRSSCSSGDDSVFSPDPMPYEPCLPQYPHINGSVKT
Method: as §1

CaMKII (beta) = CaMKII (beta) (Homo sapiens, UniProt Q13554); experiment: Activity against various protein tyrosine kinases: CaMKII (beta); settings: for inhibition at 0.01 µM: 10 nM
Method: as §1

PDGFR_alpha = PDGFR_alpha (Homo sapiens, UniProt P16234); experiment: Activity against various protein tyrosine kinases: PDGFR_alpha; settings: for inhibition at 0.01 µM: 10 nM
Method: as §1

GSK3b = GSK3b (Homo sapiens, UniProt P49841); experiment: Activity against various protein tyrosine kinases: GSK3b; settings: for inhibition at 0.01 µM: 10 nM
Method: as §1

p38a = p38a (Homo sapiens, UniProt Q16539); experiment: Activity against various protein tyrosine kinases: p38a; settings: for inhibition at 1 µM: read-out: % Inhibition at 1 μM; for inhibition at 0.01 µM: 10 nM
Chain of p38a (Q16539 whole entry): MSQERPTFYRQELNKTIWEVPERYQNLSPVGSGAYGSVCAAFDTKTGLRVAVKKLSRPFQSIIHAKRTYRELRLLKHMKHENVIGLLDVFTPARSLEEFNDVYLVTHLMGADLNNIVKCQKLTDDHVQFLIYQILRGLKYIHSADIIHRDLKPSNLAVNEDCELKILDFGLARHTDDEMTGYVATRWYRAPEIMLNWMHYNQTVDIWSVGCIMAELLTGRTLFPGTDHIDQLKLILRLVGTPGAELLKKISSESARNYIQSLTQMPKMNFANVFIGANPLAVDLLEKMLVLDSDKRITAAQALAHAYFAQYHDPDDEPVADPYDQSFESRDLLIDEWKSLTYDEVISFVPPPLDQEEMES
Method: as §1

FGFR2 (N549H) = FGFR2 (N549H) (Homo sapiens, UniProt P21802, N549H); experiment: Activity against various protein tyrosine kinases: FGFR2 (N549H); settings: for inhibition at 0.01 µM: 10 nM
Chain of FGFR2 (N549H) (P21802 22-821 N549H, species assumed): as the sequence (P21802 22-821, species assumed) above, with N528H counted along it
Method: as §1

CHK2 = CHK2 (Homo sapiens, UniProt O96017); experiment: Activity against various protein tyrosine kinases: CHK2; settings: for inhibition at 0.01 µM: 10 nM
Chain of CHK2 (O96017 whole entry, species assumed): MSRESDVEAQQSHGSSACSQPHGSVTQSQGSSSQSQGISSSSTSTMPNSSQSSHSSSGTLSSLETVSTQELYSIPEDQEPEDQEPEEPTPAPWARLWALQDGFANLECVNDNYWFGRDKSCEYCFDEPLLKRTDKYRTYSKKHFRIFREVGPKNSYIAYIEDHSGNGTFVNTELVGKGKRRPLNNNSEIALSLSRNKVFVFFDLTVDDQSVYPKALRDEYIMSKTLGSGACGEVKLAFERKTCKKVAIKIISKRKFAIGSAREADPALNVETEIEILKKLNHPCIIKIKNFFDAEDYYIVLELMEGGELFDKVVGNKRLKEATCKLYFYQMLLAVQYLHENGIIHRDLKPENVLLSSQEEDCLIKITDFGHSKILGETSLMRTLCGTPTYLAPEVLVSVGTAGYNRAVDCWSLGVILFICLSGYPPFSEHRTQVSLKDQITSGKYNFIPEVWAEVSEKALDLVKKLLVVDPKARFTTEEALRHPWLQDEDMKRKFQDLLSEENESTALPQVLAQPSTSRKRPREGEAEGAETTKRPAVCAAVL
Method: as §1

p38-beta2 = p38-beta2 (Homo sapiens, UniProt Q15759); experiment: Activity against various protein tyrosine kinases: p38-beta2; settings: for inhibition at 0.01 µM: 10 nM
Method: as §1

AKT2 = AKT2 (Homo sapiens, UniProt P31751); experiment: Activity against various protein tyrosine kinases: AKT2; settings: for inhibition at 0.01 µM: 10 nM
Chain of AKT2 (P31751 whole entry, species assumed): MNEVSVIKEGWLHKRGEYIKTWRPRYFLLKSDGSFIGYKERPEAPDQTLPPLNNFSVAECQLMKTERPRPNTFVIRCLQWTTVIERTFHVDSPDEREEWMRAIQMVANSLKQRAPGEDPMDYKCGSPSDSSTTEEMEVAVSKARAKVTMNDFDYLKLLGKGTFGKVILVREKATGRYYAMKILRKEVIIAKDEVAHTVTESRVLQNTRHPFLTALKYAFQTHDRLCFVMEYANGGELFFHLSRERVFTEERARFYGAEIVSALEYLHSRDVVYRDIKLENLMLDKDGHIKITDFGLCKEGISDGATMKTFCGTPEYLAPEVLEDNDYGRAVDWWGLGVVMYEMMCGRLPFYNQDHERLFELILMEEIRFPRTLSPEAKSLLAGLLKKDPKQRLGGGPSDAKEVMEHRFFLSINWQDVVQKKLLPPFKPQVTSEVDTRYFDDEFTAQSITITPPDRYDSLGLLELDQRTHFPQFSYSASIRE
Method: as §1

PRAK = biological target: T2, PRAK (Homo sapiens, UniProt Q8IW41); experiment: Activity against various protein tyrosine kinases: PRAK; settings: for inhibition at 0.01 µM: 10 nM
T2 sequence (Q8IW41 1-473): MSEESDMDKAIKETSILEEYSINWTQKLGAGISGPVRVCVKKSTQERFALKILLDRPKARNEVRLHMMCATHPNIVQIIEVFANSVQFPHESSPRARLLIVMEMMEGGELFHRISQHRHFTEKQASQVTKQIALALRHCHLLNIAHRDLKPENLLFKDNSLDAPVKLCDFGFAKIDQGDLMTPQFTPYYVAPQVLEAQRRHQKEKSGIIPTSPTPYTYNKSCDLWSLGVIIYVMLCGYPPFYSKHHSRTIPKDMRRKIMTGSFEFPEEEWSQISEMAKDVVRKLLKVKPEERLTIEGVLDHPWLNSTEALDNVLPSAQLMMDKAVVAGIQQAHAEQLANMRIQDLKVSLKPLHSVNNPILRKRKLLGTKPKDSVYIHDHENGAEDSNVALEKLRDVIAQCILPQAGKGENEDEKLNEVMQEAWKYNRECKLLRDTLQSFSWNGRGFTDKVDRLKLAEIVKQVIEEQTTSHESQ
Method: as §1

AKT3 = AKT3 (Homo sapiens, UniProt Q9Y243); experiment: Activity against various protein tyrosine kinases: AKT3; settings: for inhibition at 0.01 µM: 10 nM
Chain of AKT3 (Q9Y243 whole entry, species assumed): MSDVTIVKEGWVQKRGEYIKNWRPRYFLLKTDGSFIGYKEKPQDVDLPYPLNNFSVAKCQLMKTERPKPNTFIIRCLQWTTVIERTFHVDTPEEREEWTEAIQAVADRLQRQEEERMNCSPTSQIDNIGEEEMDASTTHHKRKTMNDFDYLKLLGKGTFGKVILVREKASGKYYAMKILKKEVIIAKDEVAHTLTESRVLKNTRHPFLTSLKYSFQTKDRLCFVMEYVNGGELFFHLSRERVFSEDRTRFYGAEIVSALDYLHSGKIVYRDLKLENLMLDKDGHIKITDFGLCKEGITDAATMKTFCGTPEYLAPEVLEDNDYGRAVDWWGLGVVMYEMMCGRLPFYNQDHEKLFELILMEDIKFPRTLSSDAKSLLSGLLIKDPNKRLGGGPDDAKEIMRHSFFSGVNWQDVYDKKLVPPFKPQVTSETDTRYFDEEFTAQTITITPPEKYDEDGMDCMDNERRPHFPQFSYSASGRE
Method: as §1

AurA = biological target: T3, AurA (Homo sapiens, UniProt O14965); experiment: Activity against various protein tyrosine kinases: AurA; settings: for inhibition at 0.01 µM: 10 nM
T3 sequence (O14965 1-403): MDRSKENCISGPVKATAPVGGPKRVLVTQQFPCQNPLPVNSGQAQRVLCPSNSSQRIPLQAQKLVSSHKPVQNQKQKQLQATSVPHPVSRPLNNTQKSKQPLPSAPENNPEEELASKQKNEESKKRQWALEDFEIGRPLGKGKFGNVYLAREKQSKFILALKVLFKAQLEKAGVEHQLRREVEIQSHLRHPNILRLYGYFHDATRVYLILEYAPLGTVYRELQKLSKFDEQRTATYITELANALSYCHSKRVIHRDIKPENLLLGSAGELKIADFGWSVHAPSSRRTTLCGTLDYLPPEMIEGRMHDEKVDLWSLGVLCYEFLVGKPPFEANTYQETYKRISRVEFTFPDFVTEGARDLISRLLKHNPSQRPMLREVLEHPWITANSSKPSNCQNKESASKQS
Method: as §1

CK1d = CK1d (Homo sapiens, UniProt P48730); experiment: Activity against various protein tyrosine kinases: CK1d; settings: for inhibition at 0.01 µM: 10 nM
Method: as §1

Row | Structure (SMILES) | inhibition at 0.01 µM (PKCz) [%] | inhibition at 1 µM (MSK1) [%] | inhibition at 0.01 µM (MET) [%] | inhibition at 0.01 µM (FGFR4) [%] | inhibition at 0.01 µM (Erk2) [%] | inhibition at 0.01 µM (FGFR2) [%] | inhibition at 1 µM (FGFR2) [%] | inhibition at 1 µM (CaMKII (beta)) [%] | inhibition at 0.01 µM (PDGFR_alpha) [%] | inhibition at 0.01 µM (GSK3b) [%] | inhibition at 0.01 µM (FGFR2 (N549H)) [%] | inhibition at 1 µM (FGFR2 (N549H)) [%] | inhibition at 0.01 µM (CHK2) [%] | inhibition at 0.01 µM (p38-beta2) [%] | inhibition at 1 µM (p38-beta2) [%] | inhibition at 1 µM (AKT2) [%] | inhibition at 0.01 µM (PRAK) [%] | inhibition at 0.01 µM (AKT3) [%] | inhibition at 1 µM (AKT3) [%] | inhibition at 0.01 µM (AurA) [%] | further results
1 | Cc1nc(Nc2ncc(C(=O)Nc3c(C)cccc3Cl)s2)cc(N2CCN(CCO)CC2)n1 [Dasatinib, reference compound] | 2 | 3 | -2 | -2 | -2 | 3 | 36 | 3 | 10 | 7 | 6 | 71 | 3 | -2 | 34 | -2 | -2 | -3 | -4 | -2 | inhibition at 1 µM (AurB): 6%; inhibition at 1 µM (p38a): 75%; inhibition at 0.01 µM (CK1d): 1%
2 | COCCOCCOCCNC(=O)OCCN1CCN(c2cc(Nc3ncc(C(=O)Nc4c(C)cccc4Cl)s3)nc(C)n2)CC1 [mPEG3-NHCOO-Dasatinib] | -12 | 1 | 3 | 3 | 6 | -2 | 38 | 2 | 58 | 4 | 7 | 75 | 1 | 3 | 48 | 7 | 6 | 0 | -1 | -7 | inhibition at 1 µM (PKCz): -13%; inhibition at 0.01 µM (MSK1): 2%; inhibition at 1 µM (MET): 0%; inhibition at 1 µM (FGFR4): 6%; inhibition at 0.01 µM (AurB; AurB): -1%; inhibition at 1 µM (AurB; AurB, 1 μM): 4%; inhibition at 1 µM (Erk2): 11%; inhibition at 0.01 µM (CaMKII (beta)): 1%; inhibition at 1 µM (PDGFR_alpha): 99%; inhibition at 1 µM (GSK3b): 1%; inhibition at 0.01 µM (p38a; p38a): 6%; inhibition at 1 µM (p38a; p38a, 1 μM): 81%; inhibition at 1 µM (CHK2): 11%; inhibition at 0.01 µM (AKT2): 9%; inhibition at 1 µM (PRAK): 4%; inhibition at 1 µM (AurA): 19%; inhibition at 0.01 µM (CK1d): 1%; inhibition at 1 µM (CK1d): 3%
3 | COCCOCCOCCOCCOCCOCCOCCNC(=O)OCCN1CCN(c2cc(Nc3ncc(C(=O)Nc4c(C)cccc4Cl)s3)nc(C)n2)CC1 [mPEG7-NHCOO-Dasatinib] | 5 | 5 | 1 | 0 | 3 | 5 | 35 | 2 | 46 | 3 | 5 | 63 | 2 | 0 | 35 | 3 | 8 | -3 | -2 | 3 | inhibition at 1 µM (PKCz): -9%; inhibition at 0.01 µM (MSK1): 3%; inhibition at 1 µM (MET): 1%; inhibition at 1 µM (FGFR4): 2%; inhibition at 0.01 µM (AurB; AurB): 0%; inhibition at 1 µM (AurB; AurB, 1 μM): 4%; inhibition at 1 µM (Erk2): 2%; inhibition at 0.01 µM (CaMKII (beta)): 1%; inhibition at 1 µM (PDGFR_alpha): 98%; inhibition at 1 µM (GSK3b): 2%; inhibition at 0.01 µM (p38a; p38a): 5%; inhibition at 1 µM (p38a; p38a, 1 μM): 74%; inhibition at 1 µM (CHK2): 1%; inhibition at 0.01 µM (AKT2): 3%; inhibition at 1 µM (PRAK): 0%; inhibition at 1 µM (AurA): 28%; inhibition at 0.01 µM (CK1d): 0%; inhibition at 1 µM (CK1d): 9%
